Test results as given in ChEMBL document CHEMBL5543078, “Peptidomimetics as potent dual SARS-CoV-2 cathepsin-L and main protease inhibitors: In silico design, synthesis and pharmacological characterization” (Eur J Med Chem, 2024).
Non-standard residues stand in square brackets, D forms with d. Residues, ends and D or L forms follow the SMILES beside them. *: point of attachment. AllylGly = C=CC[C@H](N)C(=O)O; Acryloyl = C=CC(=O)*; NHBn = c1ccc(CN*)cc1; ClAc = O=C(CCl)*

These molecules were tested on SARS-CoV-2 (assay: microbe, parasite or virus in culture). Details: Severe acute respiratory syndrome coronavirus 2, RG-2674 (Beta), Vero.

Structure (SMILES)	EC50
C=CC[C@H](NC(=O)CCl)C(=O)N[C@@H](CC=C)C(=O)N[C@H](CNCc1ccccc1)Cc1c[nH]c2ccccc12	2.16 µM
CC(C)C[C@@H](NC(=O)CCl)C(=O)N[C@@H](Cc1c[nH]c2ccccc12)C(=O)NCc1ccccc1	0.07 µM
O=C(CS)N[C@@H](Cc1ccccc1)C(=O)N[C@@H](Cc1c[nH]c2ccccc12)C(=O)NCc1ccccc1	> 100 µM
C=CC[C@H](NC(=O)CCl)C(=O)N[C@@H](Cc1c[nH]c2ccccc12)C(=O)NCCN1CCOCC1	5.9 µM
CC(C)C[C@H](NC(=O)CCl)C(=O)N[C@H](Cc1c[nH]c2ccccc12)C(=O)NCc1ccccc1	8.93 µM
CC(C)C[C@@H](C(=O)NCC12CC3CC(CC(C3)C1)C2)N(Cc1ccccc1)C(=O)CCl	> 4 µM
CC(C)C[C@H](NC(=O)CCl)C(=O)N[C@@H](Cc1c[nH]c2ccccc12)C(=O)NCc1ccccc1	0.44 µM
C=CC(=O)N[C@@H](CC(C)C)C(=O)N[C@@H](Cc1c[nH]c2ccccc12)C(=O)NCc1ccccc1	> 100 µM
C=CC(=O)N[C@@H](Cc1ccccc1)C(=O)N[C@@H](Cc1c[nH]c2ccccc12)C(=O)NCc1ccccc1 (Acryloyl-Phe-Trp-NHBn)	> 20 µM
O=C(CCl)NCC(=O)N[C@@H](Cc1c[nH]c2ccccc12)C(=O)NCc1ccccc1 (ClAc-Gly-Trp-NHBn)	0.07 µM
CC(C)C[C@H](NC(=O)CCl)C(=O)N[C@@H](Cc1ccccc1)C(=O)N[C@@H](Cc1c[nH]c2ccccc12)C(=O)NCc1ccccc1 (ClAc-Leu-Phe-Trp-NHBn)	> 20 µM
COC(=O)[C@H](CCC(N)=O)NC(=O)[C@H](Cc1c[nH]c2ccccc12)NC(=O)[C@H](CC(C)C)NC(=O)CCl (ClAc-Leu-Trp-Gln-OMe)	> 100 µM
O=C(CCl)N[C@@H](Cc1ccccc1)C(=O)N[C@@H](Cc1c[nH]c2ccccc12)C(=O)NCc1ccccc1 (ClAc-Phe-Trp-NHBn)	0.07 µM
CC(C)C[C@H](NC(=O)[C@H](Cc1c[nH]c2ccccc12)NC(=O)CCl)C(=O)NCc1ccccc1 (ClAc-Trp-Leu-NHBn)	0.26 µM
COC(=O)[C@H](CC(C)C)NC(=O)[C@H](Cc1c[nH]c2ccccc12)NC(=O)CCl (ClAc-Trp-Leu-OMe)	> 4 µM
O=C(CCl)N[C@@H](Cc1ccc(O)cc1)C(=O)N[C@@H](Cc1c[nH]c2ccccc12)C(=O)NCc1ccccc1 (ClAc-Tyr-Trp-NHBn)	3.32 µM
C=CC[C@H](NC(=O)CCl)C(=O)N[C@@H](Cc1c[nH]c2ccccc12)C(=O)NCc1ccccc1 (ClAc-[AllylGly]-Trp-NHBn)	0.46 µM
CC(C)C(=O)OC[C@H]1O[C@@H](n2ccc(NO)nc2=O)[C@H](O)[C@@H]1O [MOLNUPIRAVIR]	2.81 µM
CCC(CC)COC(=O)[C@H](C)N[P@](=O)(OC[C@H]1O[C@@](C#N)(c2ccc3c(N)ncnn23)[C@H](O)[C@@H]1O)Oc1ccccc1 [REMDESIVIR]	2.4 µM
